The assay addresses T1, somatostatin receptors (Rattus norvegicus, UniProt P30680).
T1 construct: endogenous in cells; host or cells: AR42J rat pancreatic tumor cell line (membrane preparation)
Put plainly: Inhibition of binding of (125I-Tyr11)somatostatin-14 to AR42J rat pancreatic tumor cell membranes. Conditions: 0.5 nM (125I-Tyr11)somatostatin-14, 25 min at 30° C., Hill plots. On the procedure:
Inhibition of Binding of (^125 I-Tyr^11)somatostatin-14 to AR42J Rat Pancreatic Tumor Cell Membranes
The rat pancreatic tumor cell line AR42J which expresses the somatostatin receptor was cultured in Dulbecco's minimal essential media (DMEM) supplemented with 10% fetal bovine serum (FBS) and 8 mM glutamine in a humidified 5% CO2 atmosphere at 37° C. in T-flasks. Harvested cells were homogenized in cold 50 mM Tris-HCl buffer (pH 7.4) and the homogenate then centrifuged at 39,000 g for 10 min at 4° C. Pellets were washed once with buffer and then resuspended in an ice-cold solution of 10 mM Tris-HCl (pH 7.4). Equal aliquots of this cell membrane preparation were incubated with (^125 I-Tyr^11)somatostatin-14 (at a final concentration of 0.5 nM and 750,000 cpm/mL, at a specific activity of 2000 Ci/mmol, Amersham, Arlington Heights, Ill.) and peptide at a final concentration of from 10^-11 M to 10^-6 M in a solution of 50 mM HEPES (pH 7.4) containing 1% bovine serum albumin (BSA), 5 mM MgCl2, Trasylol (200,000 International Units), bacitracin (0.02 mg/mL) and phenylmethylsulfonylfluoride (0.02 mg/mL) for 25 min at 30° C. Using a filtration manifold, this mixture was filtered through a polyethyleneimine-washed GC/F filter (Whatman, Maidstone, England), and the residue remaining on the filter washed thrice with 5 mL cold HEPES buffer. The filter and a sample of the filter washings were then counted in a gamma counter. To assess non-specific binding, the assay was performed in the presence of unlabeled somatostatin-14 at 200 nM. Data analysis including Hill plots of the data provided inhibition constants (see Bylund & Yamamura, "Methods of receptor binding", in Methods in Neurotransmitter Receptor Analysis, Yamamura et al., eds., Raven Press: New York, 1990).

The structures appear in SMILES notation. Square brackets hold non-standard residues; d marks the D form. Peptide text beside a SMILES is read from it. * marks the point of attachment. X4 = NCCCC[C@H](NC(=O)[C@H](CS)NC(=O)CNC(=O)[C@@H](N)CCCCNC(=O)C*)C(N)=O; X8 = NC(=O)[C@H](CCC(=O)O)NC(=O)[C@H](CS)NC(=O)CNC(=O)[C@H](CS)NC(=O)C*; X2 = N=C(N)NCCC[C@H](NC(=O)[C@H](CS)NC(=O)CNC(=O)CNC(=O)C*)C(N)=O; X1 = NCCCC[C@H](NC(=O)[C@H](CS)NC(=O)CNC(=O)CNC(=O)C*)C(N)=O; NMeF = CN[C@@H](Cc1ccccc1)C(=O)O; hCys = N[C@@H](CCS)C(=O)O

T1 sequence (P30680 whole entry): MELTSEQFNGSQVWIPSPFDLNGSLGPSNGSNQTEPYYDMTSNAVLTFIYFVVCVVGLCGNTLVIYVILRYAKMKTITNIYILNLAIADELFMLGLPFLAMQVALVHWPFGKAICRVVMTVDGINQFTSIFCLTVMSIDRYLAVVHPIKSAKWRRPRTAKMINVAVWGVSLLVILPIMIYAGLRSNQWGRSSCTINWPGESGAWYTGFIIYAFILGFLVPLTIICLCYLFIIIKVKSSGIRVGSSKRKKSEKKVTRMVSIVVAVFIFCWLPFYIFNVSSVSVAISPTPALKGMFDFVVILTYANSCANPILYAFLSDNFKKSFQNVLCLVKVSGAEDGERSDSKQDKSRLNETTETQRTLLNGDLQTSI

Usually Ki stands for a measure of affinity in units of concentration, obtained from inhibition or displacement. High values mean a looser hold on the target, low ones a stronger hold on the target. Molecule `CC(C)[C@@H]1NC(=O)[C@H](CCCCN)NC(=O)[C@@H](Cc2c[nH]c3ccccc23)NC(=O)[C@H](Cc2ccc(O)cc2)NC(=O)[C@H](Cc2ccccc2)N(C)C(=O)[C@H](CCSCC(=O)NCC(=O)NCC(=O)N[C@@H](CS)C(=O)N[C@@H](CCCNC(=N)N)C(N)=O)NC1=O` [cyclo.(N--CH3)F.YWD KV.Hcy(CH2 CO.GGCR.amide)] (cyclo([NMeF]Y[dW]KV[hCys](X2))) registered an inhibitory constant (Ki) of 0.29 nM.
Then `CC(C)[C@@H]1NC(=O)[C@H](CCCCN)NC(=O)[C@@H](Cc2c[nH]c3ccccc23)NC(=O)[C@H](Cc2ccc(O)cc2)NC(=O)[C@H](Cc2ccccc2)N(C)C(=O)[C@H](CCSCC(=O)NCC(=O)NCC(=O)N[C@@H](CS)C(=O)N[C@@H](CCCCN)C(N)=O)NC1=O` [cyclo.(N--CH3)F.YWD KV.Hcy(CH2 CO.GGCK.amide)] (cyclo([NMeF]Y[dW]KV[hCys](X1))), with 2.5 nM.
Then `CC(C)[C@@H]1NC(=O)[C@H](CCCCN)NC(=O)[C@@H](Cc2c[nH]c3ccccc23)NC(=O)[C@H](Cc2ccc(O)cc2)NC(=O)[C@H](Cc2ccccc2)N(C)C(=O)[C@H](CCSCC(=O)NCCCC[C@H](N)C(=O)NCC(=O)N[C@@H](CS)C(=O)N[C@@H](CCCCN)C(N)=O)NC1=O` [cyclo.(N--CH3)F.YWD KV.Hcy(CH2 CO.(ε-K)GCK.amide)] (cyclo([NMeF]Y[dW]KV[hCys](X4))), with 4.2 nM; and `C[C@@H](O)[C@@H]1NC(=O)[C@H](CCCCN)NC(=O)[C@@H](Cc2c[nH]c3ccccc23)NC(=O)[C@H](Cc2ccc(O)cc2)NC(=O)[C@H](Cc2ccccc2)N(C)C(=O)[C@H](CCS)NC1=O` [cyclo.(N--CH3)F.YWD KT.Hcy] (cyclo(KT[hCys][NMeF]Y[dW])), with 0.26 nM.
For the molecule `CC(C)[C@@H]1NC(=O)[C@H](CCCCN)NC(=O)[C@@H](Cc2c[nH]c3ccccc23)NC(=O)[C@H](Cc2ccc(O)cc2)NC(=O)[C@H](Cc2ccccc2)N(C)C(=O)[C@H](CCS)NC1=O` [cyclo.(N--CH3)F.YWD KV.Hcy] (cyclo(KV[hCys][NMeF]Y[dW])), the inhibitory constant (Ki) is less than 0.01 nM.
Then `CC(C)[C@@H]1NC(=O)[C@H](CCCCN)NC(=O)[C@@H](Cc2c[nH]c3ccccc23)NC(=O)[C@H](Cc2ccc(O)cc2)NC(=O)[C@H](Cc2ccccc2)N(C)C(=O)[C@H](CCSCC(=O)N[C@@H](CS)C(=O)NCC(=O)N[C@@H](CS)C(=O)N[C@@H](CCC(=O)O)C(N)=O)NC1=O` [cyclo.(N--CH3)F.YWD KV.Hcy(CH2 CO.CGCE.amide)] (cyclo(KV[hCys](X8)[NMeF]Y[dW])), with 8.5 nM.

The record behind these values is patent US5932189A, “Cyclic peptide somatostatin analogs” (Diatech, Inc., priority 1994, dated 1999).
